System: 313798-341-R-J2-PDC spheroids, viability
Experiment: Anticancer human tumor 313798-341-R-J2-PDC patient-derived cervical squamous cell carcinoma cell line growth inhibition [PI3K]
Conditions: spheroids with HUVEC and MSC; for IC50: curve of first compound; for viability, T/C: stronger effect = lower value; active means viability on the fitted dose curve at most 10% of control; inactive means the rest
Outline: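 Stroma-containing spheroids: tumor line, pooled-donor HUVEC, hMSC. Treatments: targeted agents with PI3K inhibitors. Dosing: clinically relevant, half-log spacing, 10 microM ceiling without known Cmax. Read-out: cell viability.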

[1] = second compound 0.0316 µM, first compound 0.0316 µM
[2] = second compound 0.0316 µM, first compound 0.1 µM
[3] = second compound 0.0316 µM, first compound 0.316 µM
[4] = second compound 0.0316 µM, first compound 1 µM
[5] = second compound 0.0316 µM, first compound 3.16 µM
[6] = second compound 0.0316 µM, first compound 10 µM
[7] = second compound 0.1 µM, first compound 0.0316 µM
[8] = second compound 0.1 µM, first compound 0.1 µM
[9] = second compound 0.1 µM, first compound 0.316 µM
[10] = second compound 0.1 µM, first compound 1 µM
[11] = second compound 0.1 µM, first compound 3.16 µM
[12] = second compound 0.1 µM, first compound 10 µM
[13] = second compound 0.316 µM, first compound 0.0316 µM
[14] = second compound 0.316 µM, first compound 0.1 µM
[15] = second compound 0.316 µM, first compound 0.316 µM
[16] = second compound 0.316 µM, first compound 1 µM
[17] = second compound 0.316 µM, first compound 3.16 µM
[18] = second compound 0.316 µM, first compound 10 µM
[19] = second compound 1 µM, first compound 0.0316 µM
[20] = second compound 1 µM, first compound 0.1 µM
[21] = second compound 1 µM, first compound 0.316 µM
[22] = second compound 1 µM, first compound 1 µM
[23] = second compound 1 µM, first compound 3.16 µM
[24] = second compound 1 µM, first compound 10 µM
[25] = second compound 3.16 µM, first compound 0.0316 µM
[26] = second compound 3.16 µM, first compound 0.1 µM
[27] = second compound 3.16 µM, first compound 0.316 µM
[28] = second compound 3.16 µM, first compound 1 µM
[29] = second compound 3.16 µM, first compound 3.16 µM
[30] = second compound 3.16 µM, first compound 10 µM
[31] = second compound 10 µM, first compound 0.0316 µM
[32] = second compound 10 µM, first compound 0.1 µM
[33] = second compound 10 µM, first compound 0.316 µM
[34] = second compound 10 µM, first compound 1 µM
[35] = second compound 10 µM, first compound 3.16 µM
[36] = second compound 10 µM, first compound 10 µM
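Further: spheroids exposed to compounds for seven days.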
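Wherever viability, T/C is given: 100% = DMSO vehicle control viability.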

CC(C)NCC(C(=O)N1CCN(c2ncnc3c2C(C)CC3O)CC1)c1ccc(Cl)cc1 (stereo unspecified) + Cc1nc(NC(=O)N2CCCC2C(N)=O)sc1-c1ccnc(C(C)(C)C(F)(F)F)c1
2080 nM: IC50 (second compound 0.0316 µM)
1420 nM: IC50 (second compound 1 µM)
< 31.6 nM: IC50 (second compound 10 µM)
345 nM: IC50 (second compound 3.16 µM)
inactive: viability, T/C [1] 118% | viability, T/C [2] 100% | viability, T/C [3] 88.7% | viability, T/C [4] 65.7% | viability, T/C [5] 37.8% | viability, T/C [6] 32.4% | viability, T/C [7] 107% | viability, T/C [8] 102% | viability, T/C [9] 87.8% | viability, T/C [10] 72.4% | viability, T/C [11] 45.3% | viability, T/C [12] 33.6% | viability, T/C [13] 101% | viability, T/C [14] 93% | viability, T/C [15] 94% | viability, T/C [16] 58.5% | viability, T/C [17] 39.9% | viability, T/C [18] 32.7% | viability, T/C [19] 84.9% | viability, T/C [20] 97.4% | viability, T/C [21] 86.2% | viability, T/C [22] 55.3% | viability, T/C [23] 39.2% | viability, T/C [24] 30.3% | viability, T/C [25] 65.9% | viability, T/C [26] 58.6% | viability, T/C [27] 49.4% | viability, T/C [28] 45.8% | viability, T/C [29] 32.7% | viability, T/C [30] 30.2% | viability, T/C [31] 34% | viability, T/C [32] 33.5% | viability, T/C [33] 34.6% | viability, T/C [34] 34.3% | viability, T/C [35] 27.8% | viability, T/C [36] 22.3%
2770 nM: IC50 (second compound 0.1 µM)
1620 nM: IC50 (second compound 0.316 µM)

CCN1CCN(Cc2ccc(Nc3ncc(F)c(-c4cc(F)c5nc(C)n(C(C)C)c5c4)n3)nc2)CC1 + Cc1nc(NC(=O)N2CCCC2C(N)=O)sc1-c1ccnc(C(C)(C)C(F)(F)F)c1
> 1000 nM: IC50 (second compound 0.0316 µM) | IC50 (second compound 0.1 µM) | IC50 (second compound 0.316 µM) | IC50 (second compound 1 µM) | IC50 (second compound 3.16 µM)
< 3.16 nM: IC50 (second compound 10 µM)
inactive: viability, T/C (second compound 0.0316 µM, first compound 0.00316 µM) 106% | viability, T/C (second compound 0.0316 µM, first compound 0.01 µM) 104% | viability, T/C [1] 109% | viability, T/C [2] 108% | viability, T/C [3] 131% | viability, T/C [4] 129% | viability, T/C (second compound 0.1 µM, first compound 0.00316 µM) 100% | viability, T/C (second compound 0.1 µM, first compound 0.01 µM) 104% | viability, T/C [7] 111% | viability, T/C [8] 104% | viability, T/C [9] 126% | viability, T/C [10] 131% | viability, T/C (second compound 0.316 µM, first compound 0.00316 µM) 96.9% | viability, T/C (second compound 0.316 µM, first compound 0.01 µM) 102% | viability, T/C [13] 112% | viability, T/C [14] 112% | viability, T/C [15] 114% | viability, T/C [16] 114% | viability, T/C (second compound 1 µM, first compound 0.00316 µM) 93.2% | viability, T/C (second compound 1 µM, first compound 0.01 µM) 102% | viability, T/C [19] 94.2% | viability, T/C [20] 110% | viability, T/C [21] 88.2% | viability, T/C [22] 80.9% | viability, T/C (second compound 3.16 µM, first compound 0.00316 µM) 63.6% | viability, T/C (second compound 3.16 µM, first compound 0.01 µM) 62.6% | viability, T/C [25] 56.2% | viability, T/C [26] 59.9% | viability, T/C [27] 58.4% | viability, T/C [28] 69% | viability, T/C (second compound 10 µM, first compound 0.00316 µM) 37% | viability, T/C (second compound 10 µM, first compound 0.01 µM) 37.4% | viability, T/C [31] 34.3% | viability, T/C [32] 35.8% | viability, T/C [33] 41.4% | viability, T/C [34] 45.8%

Cn1ncc(Cl)c1-c1cc(C(=O)NC(CN)Cc2cccc(F)c2)sc1Cl (stereo unspecified) + Cc1nc(NC(=O)N2CCCC2C(N)=O)sc1-c1ccnc(C(C)(C)C(F)(F)F)c1
inactive: viability, T/C [1] 109% | viability, T/C [2] 93.2% | viability, T/C [3] 70.3% | viability, T/C [4] 49.7% | viability, T/C [5] 34.5% | viability, T/C [6] 33.3% | viability, T/C [7] 108% | viability, T/C [8] 89% | viability, T/C [9] 72.1% | viability, T/C [10] 44.5% | viability, T/C [11] 33.6% | viability, T/C [12] 34.8% | viability, T/C [13] 102% | viability, T/C [14] 99.7% | viability, T/C [15] 72.2% | viability, T/C [16] 48.5% | viability, T/C [17] 34.5% | viability, T/C [18] 33.1% | viability, T/C [19] 76.5% | viability, T/C [20] 73.9% | viability, T/C [21] 56.5% | viability, T/C [22] 43.9% | viability, T/C [23] 34.3% | viability, T/C [24] 33.7% | viability, T/C [25] 59.5% | viability, T/C [26] 57.5% | viability, T/C [27] 46% | viability, T/C [28] 40.7% | viability, T/C [29] 30.4% | viability, T/C [30] 28.4% | viability, T/C [31] 38.2% | viability, T/C [32] 32.6% | viability, T/C [33] 31.9% | viability, T/C [34] 26.4% | viability, T/C [35] 27.7% | viability, T/C [36] 17.4%
831 nM: IC50 (second compound 0.1 µM)
238 nM: IC50 (second compound 3.16 µM)
< 31.6 nM: IC50 (second compound 10 µM)
572 nM: IC50 (second compound 1 µM)
868 nM: IC50 (second compound 0.316 µM)
927 nM: IC50 (second compound 0.0316 µM)
